Laboratory results published in ChEMBL document CHEMBL1137107, “Design, synthesis, and evaluation of hexahydrobenz[f]isoquinolines as a novel class of dopamine 3 receptor ligands” (Bioorg Med Chem Lett, 2004).
Each block holds one compound with its values, some of them ahead of it.

Columns and labels:
[1] = Binding affinity towards D1-like dopamine receptor in caudate-putamen membranes of sprague-dawley rat brain by using [3H]-SCH- 23390 as radioligand; format: cell membranes, Membrane
[2] = Binding affinity towards D2-like dopamine receptor in caudate-putamen membranes of sprague-dawley rat brain by using [3H]spiperone as radioligand; format: cell membranes, Membrane
[3] = target: D(3) dopamine receptor (Rattus norvegicus, UniProt P19020)
Description: Binding affinity towards dopamine D3 receptor in ventral striatal membranes of sprague-dawley rat brain by using [3H]-PD 128907 as radioligand

[4] = species: Rattus norvegicus; assay: Ratio of binding affinity for D1-like receptor to that of dopamine D3 receptor
[5] = species: Rattus norvegicus; assay: Ratio of binding affinity for D2-like receptor to that of dopamine D3 receptor

Chain of D(3) dopamine receptor (P19020 whole entry): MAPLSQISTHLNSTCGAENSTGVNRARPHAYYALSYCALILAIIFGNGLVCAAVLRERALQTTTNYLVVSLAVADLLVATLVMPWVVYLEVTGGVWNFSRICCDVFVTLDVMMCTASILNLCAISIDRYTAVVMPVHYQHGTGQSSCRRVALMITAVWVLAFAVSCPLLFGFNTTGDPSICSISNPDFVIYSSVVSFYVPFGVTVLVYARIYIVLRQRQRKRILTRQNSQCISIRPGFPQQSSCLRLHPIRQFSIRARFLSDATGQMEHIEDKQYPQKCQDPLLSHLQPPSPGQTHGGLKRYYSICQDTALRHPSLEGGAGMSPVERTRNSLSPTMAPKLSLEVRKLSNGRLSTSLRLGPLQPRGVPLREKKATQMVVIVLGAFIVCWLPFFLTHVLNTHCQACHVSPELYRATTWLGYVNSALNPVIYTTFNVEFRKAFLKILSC

Ki [1]: 636 nM
Ki [2]: 162 nM
SMILES: COc1ccccc1N1CCN(CCCCNC(=O)c2ccc3ccccc3c2)CC1 [BP-897]

SMILES: CCCN1CCC2=C(CCc3ccccc32)C1
Ki [3]: 63 nM
Selectivity [4]: 18
Selectivity [5]: 1
Ki [1]: 1120 nM
Ki [2]: 84 nM

SMILES: O=C(NCCCCN1CCC2=C(CCc3ccccc32)C1)c1ccc2ccccc2c1
Ki [3]: 6.1 nM
Selectivity [4]: 163
Selectivity [5]: 133
Ki [1]: 993 nM
Ki [2]: 811 nM

SMILES: CCN1CCC2=C(CCc3ccccc32)C1
Ki [3]: 183 nM

SMILES: CCCCCN1CCC2=C(CCc3ccccc32)C1
Ki [3]: 38 nM
Selectivity [4]: 28
Selectivity [5]: 1
Ki [1]: 1060 nM
Ki [2]: 46 nM

SMILES: c1ccc(CCCCN2CCC3=C(CCc4ccccc43)C2)cc1
Ki [3]: 74 nM
Selectivity [4]: 9
Selectivity [5]: 1
Ki [1]: 696 nM
Ki [2]: 59 nM

SMILES: c1ccc(CCN2CCC3=C(CCc4ccccc43)C2)cc1
Ki [3]: 84 nM
Selectivity [4]: 10
Selectivity [5]: 39
Ki [1]: 819 nM
Ki [2]: 3290 nM

SMILES: CCCCN1CCC2=C(CCc3ccccc32)C1
Ki [3]: 25 nM
Selectivity [4]: 62
Selectivity [5]: 5
Ki [1]: 1570 nM
Ki [2]: 122 nM

SMILES: c1ccc(CCCN2CCC3=C(CCc4ccccc43)C2)cc1
Ki [3]: 103 nM
